Data taken from patent US20170298051A1, “ACTIVATOR OF ADIPONECTIN RECEPTOR” (THE UNIVERSITY OF TOKYO, priority 2013, published 2017).

What was measured:
AdipoR1 [1] = biological target: T1, AdipoR1 (Homo sapiens, UniProt Q96A54); experiment: Measurement of AMPK phosphorylation ability (Assay 1), HEK 293T cells, Western blotting; assay type: cell-based; set-up: HEK 293T cells (ATCC; CRL-3216, medium; host or cells: HEK 293T; conditions: 10 minutes
T1 sequence (Q96A54 1-375): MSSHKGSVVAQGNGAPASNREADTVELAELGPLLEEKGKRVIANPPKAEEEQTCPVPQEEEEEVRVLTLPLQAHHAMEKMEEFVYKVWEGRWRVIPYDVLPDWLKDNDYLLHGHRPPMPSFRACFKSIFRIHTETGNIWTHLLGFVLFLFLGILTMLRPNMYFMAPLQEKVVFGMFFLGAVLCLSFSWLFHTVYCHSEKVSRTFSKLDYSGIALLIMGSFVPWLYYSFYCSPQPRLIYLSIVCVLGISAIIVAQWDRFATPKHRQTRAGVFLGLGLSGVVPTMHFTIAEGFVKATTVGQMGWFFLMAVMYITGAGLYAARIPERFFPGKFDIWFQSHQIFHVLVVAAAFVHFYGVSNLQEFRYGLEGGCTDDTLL
Experimental: The AMPK phosphorylation ability of the respective compounds according to the present invention was measured by using differentiated C2C12 cells or HEK 293T cells.
HEK 293T cells (ATCC; CRL-3216, medium; DMEM, Fetal Bovine Serum (FBS)) were cultured in a 12- or 24-well plate until they reached 100% confluency (37° C., 5% CO2).
After starvation, a test compound listed in Tables 10 and 11 (concentration: 25 μM, 50 μM) was added thereto, and after 10 minutes, the medium was discarded and the plate was frozen with liquid nitrogen.
To the 12- or 24-well cell plate which had been frozen was added 100 or 150 μL of Cell lysis buffer pH 7.4 (50 mM HEPES (pH 7.4), 2 mM sodium orthovanadate, 10 mM sodium pyrophosphate, 10 mM NaF, 2 mM EDTA, 2 mM EGTA, 0.1% (v/v) NP-40, 0.2 mM PMSF), and the cells were scraped off with a cell scraper, suspended and transferred into a micro centrifugal tube. And then, the cells were ultrasonically crushed (1 second×3 times) with a sonicator. Centrifugation was performed at 4° C. at 15,000 rpm for 15 minutes, and the supernatant was recovered into a new tube.
To 100 μL of the supernatant was added 25 μL of 5× sample buffer (280 mM Tris-HCl (pH 6.9), 40% glycerol, 10% (3-mercaptoethanol, 13% SDS, a small amount of bromophenol blue) and mixed together. The rest of the supernatant was used for protein quantification, and the protein concentrations were uniformed by adding 1× sample buffer depending on the concentration of each sample.
An electrophoresis chamber was filled with 1× SDS buffer (25 mM Tris-HCl, 250 mM glycine, 0.1% SDS), and the sample was applied to a well of polyacrylamide gel. Electrophoresis was performed until the bromophenol blue in the sample reached to the bottom of the gel.
A filter paper was soaked in 1× Transfer buffer sufficiently, above which the PVDF membrane and the gel after electrophoresis were stacked in this order, and thereabove a filter paper which had been soaked in 1× Transfer buffer sufficiently was further stacked, from which an air was removed and the resultant was set in semi-dry type transfer apparatus and transferred (7V, 35 minutes).
An unnecessary portion of the blotted membrane was cutoff, and the rest was immediately soaked in blocking buffer (5% skimmed milk in Rinse buffer), and shaken at room temperature at 40 rpm for 3 hours.
After blocking, the membrane was transferred into Rinse buffer, and washed at room temperature for 10 minutes while shaking. The membrane was soaked in a primary antibody solution (AMPK alpha Antibody (Cell signaling; #2532) 1/1,000 in Rinse buffer, Phospho-AMPK alpha (Thr172) (40H9) antibody (Cell signaling; #2535) 1/1,000 in Rinse buffer), and shaken at 4° C. at 40 rpm overnight.
The membrane was soaked in a secondary antibody solution (goat anti-rabbit IgG-HRP Antibody (Santa Cruz; sc-2030) 1/2,000 in Rinse buffer), and shaken at room temperature at 40 rpm for 1 hour.
After the membrane was washed for 45 minutes in the same way as after the primary antibody reaction, the membrane was soaked in a chemiluminescent reaction solution (ECL Western Blotting Detection Reagents, GE Healthcare) for about 1 minute. An excess of the reaction solution was removed, and then the membranes were arranged on a transparent film and sandwiched with it, with which an X-ray film was exposed in a darkroom (for about several seconds to 60 seconds) to develop the film.
The X-ray film was scanned to take the image, for which the band was measured by using the image analysis software “Image J” to determine the respective amounts of pAMPK and AMPK.

AdipoR1 [2] = biological target: T1, AdipoR1; experiment: Measurement of AMPK phosphorylation ability (Assay 2), HEK 293T cells with unrelated or AdipoR1 siRNA; assay type: cell-based; set-up: HEK 293T cells (ATCC; CRL-3216, medium; host or cells: HEK 293T
Experimental: HEK 293T cells (medium; DMEM, 10% FBS) were cultured in a 24-well plate until they reached 60% confluency (37° C., 5% CO2).
First, 1 μL of Lipofectamine RNAiMAX and 50 μL of OPTI-MEM were mixed, and then 5 μM siRNA (sense siRNA sequence: […]tt (SEQ ID NO: 1)) and 50 μL of OPTI-MEM were mixed and the resultants were left to stand at room temperature for 5 minutes. And then, the 1 μL Lipofectamine RNAiMAX/50 μL OPTI-MEM and the 5 μM siRNA/50 μL OPTI-MEM were mixed, and the resultant was left to stand at room temperature for 10 minutes, which was added to the cells.
After 5 minutes, the medium (DMEM, 10% FBS) was replaced, and after starvation on the next day, a test compound listed in Tables 10 and 11 was added thereto. After 10 minutes, the medium was discarded and the plate was frozen with liquid nitrogen.
The respective amounts of pAMPK and AMPK were determined in the same way as in the above Assay 1.

Structure (SMILES) | pAMPK/AMPK (%) (AdipoR1 [1]; 25 μM) | pAMPK/AMPK (%) (AdipoR1 [1]; 50 μM) | pAMPK/AMPK (ratio) siRNA, AdipoR1 siRNA (AdipoR1 [2]) | pAMPK/AMPK (ratio) siRNA, unrelated siRNA (AdipoR1 [2])
O=C(COc1ccc(C(=O)c2ccc(Cl)cc2)cc1)NC1CCN(Cc2ccccc2)CC1 [Compound 11] | 83.12% | 102.94% | 3.75 ratio | 2.58 ratio
O=C(COc1ccc(C(=O)c2ccccc2)cc1)NC1CCN(Cc2ccc(Cl)cc2)CC1 [Compound 12] | 106.36% | 82.93% | 2.47 ratio | 2.51 ratio
COc1cc(C(C)=O)ccc1OCC(=O)NC1CCN(Cc2ccc(Cl)c(Cl)c2)CC1 [Compound 15] | 88.71% | 88.18% | 3.49 ratio | 3.27 ratio
NC(=O)c1ccc(OCC(=O)NC2CCN(Cc3ccc(Cl)c(Cl)c3)CC2)cc1 [Compound 19] | 83.61% | 95.02% | 3.75 ratio | 3.88 ratio
NC(=O)c1ccc(OCC(=O)NC2CCN(Cc3ccc(Br)cc3)CC2)cc1 [Compound 21] | 81.11% | 83.12% | 1.92 ratio | 2.34 ratio
Cc1ccc(OCC(=O)NC2CCN(Cc3ccc(Cl)c(Cl)c3)CC2)cc1 [Compound 30] | 122.70% | 89.75% | 2.35 ratio | 2.49 ratio
CCc1ccc(OCC(=O)NC2CCN(C(C)c3ccccc3)CC2)cc1 (stereo not drawn) [Compound 31] | 80.60% | 80.60% | 2.61 ratio | 3.17 ratio
O=C(COc1ccc(F)cc1)NC1CCN(Cc2ccc(Cl)c(Cl)c2)CC1 [Compound 32] | 88.09% | 91.40% | 4.14 ratio | 3.38 ratio
O=C(COc1ccc(Cl)cc1)NC1CCN(Cc2ccc(Cl)c(Cl)c2)CC1 [Compound 33] | 106.31% | 84.10% | 2.63 ratio | 2.88 ratio
O=C(COc1ccc(C(F)(F)F)cc1)NC1CCN(C(=O)c2ccccc2F)CC1 [Compound 34] | 80.64% | 80.50% | 2.01 ratio | 2.32 ratio

The remaining lines, values ahead:

pAMPK/AMPK (%) (AdipoR1 [1]; 25 μM) | pAMPK/AMPK (%) (AdipoR1 [1]; 50 μM) | pAMPK/AMPK (ratio) siRNA, AdipoR1 siRNA (AdipoR1 [2]) | pAMPK/AMPK (ratio) siRNA, unrelated siRNA (AdipoR1 [2]) | Structure (SMILES)
80.77% | 83.74% | 2.01 ratio | 3.38 ratio | COc1ccc(CN2CCC(NC(=O)COc3ccc(C(F)(F)F)cc3)CC2)cc1F [Compound 35]
80.42% | 84.19% | 2.56 ratio | 2.52 ratio | O=C(COc1ccc(Oc2ccccc2)cc1)NC1CCN(Cc2ccccc2)CC1 [Compound 36]
83.83% | 80.12% | 2.69 ratio | 3.11 ratio | COc1ccc(OCC(=O)NC2CCN(Cc3ccc(Cl)c(Cl)c3)CC2)cc1 [Compound 37]
112.70% | 87.54% | 2.43 ratio | 2.67 ratio | CCOc1ccc(OCC(=O)NC2CCN(Cc3ccc(Cl)c(Cl)c3)CC2)cc1 [Compound 38]
80.20% | 91.33% | 2.25 ratio | 2.25 ratio | CCOc1ccc(OCC(=O)NC2CCN(Cc3cccc(C(F)(F)F)c3)CC2)cc1 [Compound 40]
80.93% | 80.11% | 2.74 ratio | 2.58 ratio | Cc1ccccc1CN1CCC(NC(=O)COc2ccc(Oc3ccccn3)cc2)CC1 [Compound 46]
80.31% | 80.39% | 2.44 ratio | 2.78 ratio | CC(c1ccccc1)N1CCC(NC(=O)COc2ccc(Oc3ccccn3)cc2)CC1 (stereo not drawn) [Compound 47]
80.04% | 85.28% | 3.16 ratio | 3.42 ratio | O=C(COc1ccc(Oc2ccccn2)cc1)NC1CCN(Cc2ccc(F)cc2)CC1 [Compound 48]
91.44% | 81.80% | 2.04 ratio | 2.26 ratio | CC(C)(C)c1ccc(C(=O)NCCC(=O)N2CCN(Cc3cccc4cccnc34)CC2)cc1 [Compound 53]
80.29% | 83.01% | 3.57 ratio | 4.86 ratio | CC(C)c1ccc(CN2CCN(C(=O)CCNC(=O)c3ccc([N+](=O)[O-])cc3)CC2)cc1 [Compound 64]
43.00% | 55.80% |  |  | COc1ccc(OC)c(CN2CCN(C(=O)CCNC(=O)c3ccc([N+](=O)[O-])cc3)CC2)c1 [Compound 66]
70.98% | 70.70% |  |  | O=C(NCCC(=O)N1CCN(Cc2cccc(C(F)(F)F)c2)CC1)c1ccc([N+](=O)[O-])cc1 [Compound 67]
53.92% | 45.94% |  |  | COc1ccc(CN2CCN(C(=O)CCNC(=O)c3ccc([N+](=O)[O-])cc3)CC2)cc1F [Compound 68]
78.18% | 65.40% |  |  | COc1ccccc1CN1CCN(C(=O)CCNC(=O)c2ccc3ccccc3c2)CC1 [Compound 71]
42.05% | 46.92% |  |  | COc1cccc(C(=O)N2CCN(CCC(=O)NC3CC3)CC2)c1 [Compound 72]
